Experimental data published in PMC6277198, “Molecular basis for activation of lecithin:cholesterol acyltransferase by a compound that increases HDL cholesterol” (eLife, 2018).
Substitutions are numbered along the chain they refer to. Entries after “also recorded” stand apart in the source; their conditions may differ. Like-named read-outs stand apart in the source and are kept apart here.

Experiments:
LCAT R244A = molecular target: T1, LCAT R244A (Homo sapiens, UniProt P04180, R268A); assay: MUP hydrolysis (esterase) assay; type: biochemical
T1 construct: hydrolysis of 4-methylumbelliferyl palmitate (MUP) by full-length LCAT; made in house; host or cells: HEK293F (transient transfection, secreted)
T1 sequence (P04180 25-440 R268A): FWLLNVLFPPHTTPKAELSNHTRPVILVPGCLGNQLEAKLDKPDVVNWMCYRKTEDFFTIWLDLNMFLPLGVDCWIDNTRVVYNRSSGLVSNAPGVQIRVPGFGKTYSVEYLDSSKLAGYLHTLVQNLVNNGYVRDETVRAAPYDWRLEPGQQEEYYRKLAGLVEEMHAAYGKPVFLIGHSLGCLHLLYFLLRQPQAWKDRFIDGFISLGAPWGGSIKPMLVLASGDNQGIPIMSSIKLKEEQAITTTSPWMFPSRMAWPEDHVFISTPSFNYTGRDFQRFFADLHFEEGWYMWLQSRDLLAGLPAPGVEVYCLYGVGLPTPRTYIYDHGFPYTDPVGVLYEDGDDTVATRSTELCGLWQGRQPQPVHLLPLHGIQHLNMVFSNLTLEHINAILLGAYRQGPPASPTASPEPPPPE
Method: (§1) The lipase activity of LCAT was measured using MUP as a substrate. The assay was performed at room temperature in 0.1 M sodium phosphate buffer, pH 7.4 containing 0.01% Triton X-100. 4 μL of LCAT (6 nM final concentration) were dispensed into a 1536-well Greiner solid black plate. The same volume of assay buffer was dispensed into column 1 and 2 for a no-enzyme control. Then 23 nL DMSO or compounds titrated at 11-point 1:3 dilution series starting at 10 mM were transferred using a pintool. After 15 min incubation, 2 μL MUP (16 μM final concentration) was added to initiate the reaction. The hydrolysis of MUP was monitored using a ViewLux plate reader (excitation 380 nm/emission 450 nm) for 20 min. The fluorescence signal was normalized against no-activator and no-enzyme control after subtraction of background signal (t = 0 min). To plot percent activation, in each assay 100% was set at the rate of LCAT or LCAT variant without compound. The resulting data were fitted to a sigmoidal dose response curve.

LCAT R244H = molecular target: T2, LCAT R244H (Homo sapiens, UniProt P04180, R268H); assay: MUP hydrolysis (esterase) assay; type: biochemical
T2 construct: hydrolysis of 4-methylumbelliferyl palmitate (MUP) by full-length LCAT; made in house; host or cells: HEK293F (transient transfection, secreted)
T2 sequence (P04180 25-440 R268H): T1 sequence (P04180 25-440 R268A) with A244H
Method: as §1

WT LCAT = molecular target: T3, WT LCAT (Homo sapiens, UniProt P04180); assay: Differential scanning fluorimetry; type: binding; set-up: hydrolysis of 4-methylumbelliferyl palmitate (MUP) by full-length LCAT; made in house; host or cells: HEK293F (transient transfection, secreted); settings: for Thermal stabilization (DSF): WT LCAT; for Thermal stabilization of WT LCAT (DSF): compound at 10 μM
T3 sequence (P04180 25-440): T1 sequence (P04180 25-440 R268A) with A244R
Method: Tm values were determined using an Applied Biosystems QuantStudio 7 Flex qPCR machine with two replicates performed at least in triplicate. LCAT at 0.05 mg mL^−1 was diluted into reaction buffer containing 5X Sypro Orange in a final volume of 10 μL in 384-well PCR plates. DMSO or compound 1 was added so that all reactions contained 3% DMSO. The reactions were run from 25–95 °C with a ramp rate of 0.03 °C s^−1. Tm values were determined as the derivative using Protein Thermal Shift software. Significance was determined using a one-way analysis of variance followed by Tukey’s multiple comparisons post-test in GraphPad Prism.

[1] = compound titrated from 0.04 to 9.5 μM
[2] = compound titrated from 0.04 to 9.5 μM, read-out: MUP assay EC50
[3] = read-out: EC50, MUP esterase assay

Compound	Fold activation, MUP esterase assay (LCAT R244A; [1])	EC50 (LCAT R244A; [2]) [nM]	EC50 (LCAT R244A; [3]) [nM]	Fold activation, MUP esterase assay (LCAT R244H; [1])	EC50 (LCAT R244H; [2]) [nM]	EC50 (LCAT R244H; [3]) [nM]	Thermal stabilization (DSF) (WT LCAT)	MUP assay EC50 (LCAT R244A; [1])	MUP assay EC50 (LCAT R244H; [1])	Thermal stabilization of WT LCAT (DSF) (WT LCAT)
N#Cc1cnc(N2CCC(c3n[nH]c4c3C(O)(C(F)(F)F)CC(=O)N4)CC2)cc1C(F)(F)F (centres unmarked) [compound 1, 6-(4-(4-Hydroxy-6-oxo-4-(trifluoromethyl)−4,5,6,7-tetrahydro-1H-pyrazolo[3,4-b]pyridin-3-yl)piperidin-1-yl)−4-(trifluoromethyl)nicotinonitrile]	1.7 ± 0.4 fold	130 ± 20	~150	1.6 ± 0.3 fold	160 ± 30	~150	stabilize	–	–	–
O=C1CC(O)(C(F)(F)F)c2c(C3CCN(c4cnc(C(F)(F)F)cn4)CC3)n[nH]c2N1 (centres unmarked) [compound 2, 4-Hydroxy-4-(trifluoromethyl)−3-(1-(5-(trifluoromethyl)pyrazin-2-yl)piperidin-4-yl)−4,5-dihydro-1H-pyrazolo[3,4-b]pyridin-6(7H)-one]	1.9 ± 0.2 fold	270 ± 40	–	1.8 ± 0.1 fold	320 ± 30	–	stabilize	–	–	–
O=C1CC(O)(C(F)(F)F)c2c(ncn2C2CCN(c3cnc(C(F)(F)F)cn3)CC2)N1 (centres unmarked) [compound 3, 7-Hydroxy-7-(trifluoromethyl)−1-(1-(5-(trifluoromethyl)pyrazin-2-yl)piperidin-4-yl)−6,7-dihydro-1H-imidazo[4,5-b]pyridin-5(4H)-one]	1.9 ± 0.2 fold	400 ± 30	–	1.8 ± 0.1 fold	470 ± 50	–	stabilize	–	–	–
O=C1CC(O)(C(F)(F)F)c2c(ncn2C2CCNCC2)N1 (centres unmarked) [compound 6, 7-Hydroxy-1-(piperidin-4-yl)−7-(trifluoromethyl)−6,7-dihydro-1H-imidazo[4,5-b]pyridin-5(4H)-one]	no effect	–	–	no effect	–	–	–	no effect	no effect	do not stabilize; also recorded: could not thermal stabilize
O=c1cc(C(F)(F)F)c2c(ncn2C2CCN(c3cnc(C(F)(F)F)cn3)CC2)[nH]1 [compound 8, 7-(trifluoromethyl)−1-(1-(5-(trifluoromethyl)pyrazin-2-yl)piperidin-4-yl)−1H-imidazo[4,5-b]pyridin-5(4H)-one]	3.2 ± 0.8 fold	> 10000	–	2.8 ± 0.6 fold	> 10000	–	–	–	–	do not stabilize; also recorded: could not thermal stabilize
O=C1CC(O)(C(F)(F)F)c2c(C3CCN(c4cnc(C(F)(F)F)cn4)CC3)noc2N1 (centres unmarked) [compound 9, 4-hydroxy-4-(trifluoromethyl)−3-(1-(5-(trifluoromethyl)pyrazin-2-yl)piperidin-4-yl)−4,5-dihydroisoxazolo[5,4-b]pyridin-6(7H)-one]	1.2 ± 0.1 fold	6200 ± 800	–	1.3 ± 0.06 fold	7600 ± 1000	–	–	–	–	do not stabilize; also recorded: could not thermal stabilize
